From patent US11510931B2, “Compositions and methods for treating ophthalmic conditions” (MEDICON PHARMACEUTICALS, INC., priority 2016, dated 2022)

Columns and labels:
IL-8 [1] = assay: IL-8 in culture medium of human conjunctival cells (ELISA); format: cell-based
Procedure: (§1) Culture media were harvested 24 h later and the levels of TGF-β, IL-6 and IL-8 were determined by ELISA. Of note, the levels of IL-1β were below the limit of detection.

TGF-β = TGF-β in culture medium of human conjunctival cells (ELISA); format: cell-based
Procedure: as §1

NF-κB = NF-κB activation by EMSA in TNF-α-stimulated human conjunctival cells; format: cell-based; details: PS 5 h then TNF-α 10 ng/ml 1 h, FIG. 6A
From the text: The Mechanism of Action of PS in Dry Eye. Tissue culture, animal and human studies have established inflammation as the core mechanism of DED^8. To determine the mechanism of action of PS in DED the response to PS of several factors known to play an important role in the inflammation associated with DED was explored. They include NF-κB; the cytokines TGF-β, IL-1 β, IL-6 and IL-8; the collagenases MMP-1 and MMP-9; and PGE2. In these studies we used human conjunctival epithelial cells, the Wong-Kilbourne derivative of Chang conjunctival cells (clone 1 to 5c-41 American Type Culture Collection (Manassas, Va.) certified cell line, 20.2).
Human conjunctival cells were treated with various concentrations of PS. Five hours later, TNF-α was added to the culture medium to a final concentration of 10 ng/ml and the status of NF-κB activation was determined by EMSA 1 h later. […] Similarly, after 1 week of treatment, PS suppressed NF-κB activation in the ILG of rabbits with DED compared to those treated with vehicle.

IL-8 [2] = assay: IL-8 levels in the ILG of rabbits with DED (ELISA); format: in vivo, rabbit
Procedure: Using this model, we compared the effect of PS to that of cyclosporine and lifitegrast. Rabbits were treated for 6 days with PS as above or cyclosporine 0.05% or lifitegrast 5% eye drops 3×/day. In addition to determining TUBT, osmolarity and STT, we measured the levels of IL-8 and IL-1β in the ILGs of the rabbits harvested at euthanasia. Both of these cytokines are significant mediators of inflammation in DED. As shown in the table below, PS had statistically significant effects on TBUT, tear osmolarity, IL-8 and IL-1β levels. […] Of note, lifitegrast suppressed STT below the levels of the vehicle group and this suppression was statistically significant, but in the opposite direction for a useful therapeutic effect.
Moreover, for all three cytokines PS suppressed their unstimulated levels as well (62%, 84% and 4.7% reduction, respectively). In addition, PS suppressed the levels of IL-8 by 64% and IL-1β (not expressed by the cultured cells) by 61% in the ILG of rabbits treated with PS for 1 week compared to controls treated with vehicle (FIG. 8B). TGF-β was not detectable by the method in ILG homogenates. All these changes were statistically significant (p<0.001-0.04, except for the unstimulated TGF-β).

MMPs = assay: General MMP activity in rabbit cornea (FRET peptide); format: in vivo
Procedure: The general activity of MMPs was determined in the corneas of three groups of rabbits. This MMP activity assay employs a fluorescence resonance energy transfer (FRET) peptide as a generic MMP indicator. Rabbits were treated with PS 1.6% or ketorolac 0.5% eye drops topically applied to their eyes or were not treated (naïve group). Results in relative fluorescence units (RFU)/mg protein (mean±SEM). Naïve=1,328±123; PS=749±218; Ketoroloac=1,272±106 (p<0.03 vs PS).
In an acute experiment, naïve rabbits were treated with either PS or ketorolac (both administered topically) for 1 h and determined the activity of MMP in the cornea. This assay determines the activity of MMPs collectively in a given tissue.

[3] = TNF-α-stimulated, PS 1×IC50, media at 24 h

Work on CCOP(=O)(OCC)OCCCCOC(=O)CC1=C(C)/C(=C/c2ccc([S+](C)[O-])cc2)c2ccc(F)cc21 (stereo not drawn) [PS, phosphosulindac] yielded an IL-8 reduction (IL-8 [1]; [3]) of 92%, an IL-8 reduction (IL-8 [1]; unstimulated levels, PS 1×IC50) of 62% and a TGF-β reduction (TGF-β; [3]) of 19%. For the same compound, the TGF-β reduction (TGF-β; unstimulated levels, PS 1×IC50, not statistically significant) was 4.7%, the “activation of NF-κB (EMSA)” value (NF-κB) was “significantly suppressed” and the “IL-8 in the ILG” value (IL-8 [2]; Con A DED rabbits, 6 days, eye drops 3×/day, PS nanoparticles, cyclosporine 0.05%, lifitegrast 5%, mean ± SEM) was 4.9 ± 1.7 pg/mg protein. For the same compound, the “suppression of IL-8 levels in the ILG” value (IL-8 [2]; rabbits treated with PS for 1 week vs vehicle) was 64%, the “suppression of the activity of MMPs in the cornea” value (MMPs; naïve rabbits, topical, 1 h) was 43% and the “general activity of MMPs in the corneas” value (MMPs; rabbits, PS 1.6% or ketorolac 0.5% eye drops, mean±SEM) was 749±218 RFU/mg protein.
